Key:
collagen IV = assay: Collagen IV immunolabeling (immunofluorescence) of skin sections after 24 weeks of dietary hesperidin; type: in vivo; settings: for Number of sections (out of 12) with medium and strong labeling of the DEJ / % of sections with medium and strong labeling of the DEJ: collagen IV; for Number of sections (out of 12) with medium and strong labeling of the DEJ: control group E: 6; for % of sections with medium and strong labeling of the DEJ: control group E: 50
Description: (§1) The study was carried out on elderly, healthy individuals subjected, for 24 weeks, to a diet optionally comprising hesperidin.
(§2) The first group of individuals (group E) is a control group subjected to a standard diet free of hesperidin.
(§3) The second group of individuals (group F) is a group subjected to a diet comprising 0.1% by weight of hesperidin relative to the standard diet, which corresponds to 50 mg of hesperidin per kg of body weight of the individual and per day.
(§4) The third group of individuals (group G) is a group subjected to a standard diet comprising 0.5% by weight of hesperidin relative to the standard diet, which corresponds to 250 mg of hesperidin per kg of body weight of the individual and per day.
(§5) Skin samples were taken and analyzed in order to study, by immunofluorescence, the expression of the collagen IV and collagen VII skin markers characteristic of the dermoepidermal junction.
The immunolabeling of collagen IV is carried out by immunohistochemistry with an “anticollagen type IV polyclonal” primary antibody [Rockland (sold by Tebu-Bio), dilution 1/50] and an “anti-rabbit FITC” secondary antibody [Santa Cruz, dilution 1/100].
The labeling was carried out on frozen sections 5 μm thick derived from skin samples.
The slides were recovered in PBS for five minutes, incubated with the primary antibody for one hour at ambient temperature in the dark, rinsed in PBS twice for five minutes, then incubated with the secondary antibody for one hour at ambient temperature in the dark, and then again rinsed in PBS twice for five minutes.
The slides were then mounted with Vectashield (Vector) containing DAPI ([…]), and then covered with a coverslip.

collagen VII = assay: Collagen VII immunolabeling (immunofluorescence) of skin sections after 24 weeks of dietary hesperidin; type: in vivo; settings: for Number of sections (out of 12) with labeling of the DEJ and labeling in the papillary dermis / % of sections with labeling of the DEJ and labeling in the papillary dermis: collagen VII; for Number of sections (out of 12) with labeling of the DEJ and labeling in the papillary dermis: control group E: 3; for % of sections with labeling of the DEJ and labeling in the papillary dermis: control group E: 25
Description: as §1, §2, §3, §4, §5
The collagen VII immunolabeling is carried out as indicated previously, but using “anticollagen type VII polyclonal” [EUROMEDEX (sold by Chemicon), dilution 1/500] as primary antibody and “anti-mouse Ig FITC” [Dake, dilution 1/100] as secondary antibody.

[1] = group F, diet with 0.1% by weight hesperidin (50 mg/kg/day), 24 weeks
[2] = group G, diet with 0.5% by weight hesperidin (250 mg/kg/day), 24 weeks

COc1ccc([C@@H]2CC(=O)c3c(O)cc(O[C@@H]4O[C@H](CO[C@@H]5O[C@@H](C)[C@H](O)[C@@H](O)[C@H]5O)[C@@H](O)[C@H](O)[C@H]4O)cc3O2)cc1O [Hesperidin, (S)-7-[[6-O-(6-deoxy-α-L-mannopyranosyl)-β-D-glucopyranosyl]oxy]-2,3-dihydro-5-hydroxy-2-(3-hydroxy-4-methoxyphenyl)-4H-1-benzopyran-4-one]
Number of sections (out of 12) with medium and strong labeling of the DEJ (collagen IV; [1]): 7 | % of sections with medium and strong labeling of the DEJ (collagen IV; [1]): 58% | Number of sections (out of 12) with medium and strong labeling of the DEJ (collagen IV; [2]): 12 | % of sections with medium and strong labeling of the DEJ (collagen IV; [2]): 100% | Effect on collagen network in the dermal tissue and collagen IV expression (conclusion) (collagen IV; oral, diet, 24 weeks): increase in the expression of the collagen IV | Expression of collagen IV in the basal lamina compared with the control (collagen IV; the two treated groups (F and G), FIG. 1): greater expression of collagen IV | Number of sections (out of 12) with labeling of the DEJ and labeling in the papillary dermis (collagen VII; [1]): 6 | % of sections with labeling of the DEJ and labeling in the papillary dermis (collagen VII; [1]): 50% | Number of sections (out of 12) with labeling of the DEJ and labeling in the papillary dermis (collagen VII; [2]): 11 | % of sections with labeling of the DEJ and labeling in the papillary dermis (collagen VII; [2]): 92% | Collagen VII fluorescence intensity at the DEJ and in the papillary dermis (collagen VII; more particularly group G (0.5% hesperidin diet), FIG. 2): increase in fluorescence intensity | Effect on collagen network in the dermal tissue and collagen VII expression (conclusion) (collagen VII; oral, diet, 24 weeks): increase in the expression of collagen VII

Source: patent US20100305053A1, “USE OF […] OF A DERIVATIVE THEREOF FOR THE PREVENTION AND/OR TREATMENT OF SLACKENED SKIN” (L'OREAL, priority 2007, published 2010)
